Assay results reported in patent publication US7955596B2 (priority 2003, dated 2011).
Where two headings read alike, the source gives them in different places.

Legend:
[1] = system: AI-1 and AI-2-mediated quorum-sensing pathways; details: cited from earlier work
[2] = system: B. anthracis strain RBAF140; format: cell-based
B. anthracis strain 34F2 [3] = format: cell-based
[4] = system: B. anthracis protective antigen (PA); format: cell-based
[5] = system: pag-lacZ (pagA protective antigen gene transcription); format: cell-based, B. anthracis
[6] = system: AI-2-mediated quorum-sensing; details: cited from earlier work
[7] = system: AI-2-mediated quorum-sensing; details: cited from earlier work; remark: listed apart in the source
B. subtilis = details: cited from earlier work
B. anthracis strain 34F2 [8] = format: cell-based; remark: listed apart in the source

SMILES: CCCCC1=C(Br)/C(=C/Br)OC1=O [furanone 1, (5Z)-4-bromo-5-(bromomethylene)-3-butyl-2(5H)-furanone]
- AI-1 and AI-2-mediated quorum-sensing pathways [1]: directly inhibit
- Growth of RBAF140 (OD600) [2]: significant inhibition of growth
- B. anthracis growth (OD600) (B. anthracis strain 34F2 [3]): dramatically inhibited
- Bacterial growth (OD600) (B. anthracis strain 34F2 [3]): completely inhibited
- Bacterial growth (OD600) with increasing concentration (B. anthracis strain 34F2 [3]): increasingly retarded
- PA expression (Western blot) [4]: significant reduction
- Expression of pag-lacZ (β-gal activity) [5]: significantly reduced
- AI-2-mediated quorum-sensing [6]: inhibit
- AI-2-mediated quorum-sensing [7]: inhibit
- Biofilm formation (B. subtilis): inhibit
- Swarming (B. subtilis): inhibit
- Bacterial growth (OD600) with increasing concentration, log phase cells (B. anthracis strain 34F2 [8]): increasingly retarded

SMILES: CCCCC1=CC(=C(Br)Br)OC1=O [furanone 2, 3-butyl-5-(dibromomethylene)-2-(5H)-furanone]
- Inhibitory effect compared among furanones 1, 2 and 4 (B. anthracis strain 34F2 [3]): least

SMILES: O=C1C=C(Br)/C(=C/Br)O1 [furanone 4, 4-bromo-5-(bromomethylene)-2(5H)-furanone]
- Inhibitory effect compared among furanones 1, 2 and 4 (B. anthracis strain 34F2 [3]): most potent inhibitory effect
